In patent publication US8999969B2, “Anti-RSV compounds” (Gilead Sciences, Inc., priority 2009, dated 2015):

Tested on: RSV strain A2
Test: in vitro cytoprotection assay against RSV in Hep2 cells
Type: cell-based
Details: human respiratory syncytial virus, HEp-2, 96 h; 1 uM compound; RSV-induced cytopathic effect in Hep2 cells, 4 days, Cell TiterGlo; read-out: RSV % inh. @ 1 uM
Experimental: Antiviral activity against RSV was determined using an in vitro cytoprotection assay in Hep2 cells. […] The method used is similar to methods previously described in Chapman J et al., “RSV604 a novel inhibitor of respiratory syncytial virus replication,” Antimicrob Agents Chemother, 51(9):3346-53 (2007).
Hep2 cells were obtained from ATCC (Manassas, Va.) and maintained in MEM media supplemented with 10% fetal bovine serum and penicillin/streptomycin. Cells were passaged twice a week and kept at subconfluent stage. Commercial stock of RSV strain A2 (Advanced Biotechnologies, Columbia, Md.) was titered before compound testing to determine the appropriate dilution of the virus stock that generates desirable cytopathic effect in Hep2 cells.
For antiviral tests, Hep2 cells were seeded into 96-well plates 24 hours before the assay at a density of 3,000 cells/well. On a separate 96well plate, tested compounds were serially diluted in cell culture media. Eight concentrations in 3-fold serial dilution increments were prepared for each tested compound and 100 uL/well of each dilution was transferred in duplicate onto plates with seeded Hep2 cells. Subsequently, appropriate dilution of virus stock previously determined by titration was prepared in cell culture media and 100 uL/well was added to test plates containing cells and serially diluted compounds. Each plate included three wells of infected untreated cells and three wells of uninfected cells that served as 0% and 100% virus inhibition control, respectively. Following the infection with RSV, testing plates were incubated for 4 days in a tissue culture incubator. After the incubation, RSV-induced cytopathic effect was determined using a Cell TiterGlo reagent (Promega, Madison, Wis.) followed by a luminescence read-out. The percentage inhibition was calculated for each tested concentration relative to the 0% and 100% inhibition controls and the EC50 value for each compound was determined by non-linear regression as a concentration inhibiting the RSV-induced cytopathic effect by 50%. Ribavirin (purchased from Sigma, St. Louis, Mo.) was used as a positive control for antiviral activity.

SMILES	inhibition at 1 µM [%]
CN(C)C(=O)c1cc2c(s1)-c1ccccc1N(C(=O)c1ccc(NC(=O)c3cccnc3N3CCCC3)cc1)CC2 [Example 55]	16
CC(C)(CO)NC(=O)c1cc2c(s1)-c1ccccc1N(C(=O)c1ccc(NC(=O)c3cccnc3N3CCCC3)cc1)CC2 [Example 56]	93
O=C(N[C@@H]1CCOC1)c1cc2c(s1)-c1ccccc1N(C(=O)c1ccc(NC(=O)c3cccnc3N3CCCC3)cc1)CC2 [Example 57]	95
O=C(NCCF)c1cc2c(s1)-c1ccccc1N(C(=O)c1ccc(NC(=O)c3cccnc3N3CCCC3)cc1)CC2 [Example 58]	100
COC1CN(C(=O)c2cc3c(s2)-c2ccccc2N(C(=O)c2ccc(NC(=O)c4cccnc4N4CCCC4)cc2)CC3)C1 [Example 59]	43
NC(=O)CCNC(=O)c1cc2c(s1)-c1ccccc1N(C(=O)c1ccc(NC(=O)c3cccnc3N3CCCC3)cc1)CC2 [Example 60]	35
NC(=O)c1cc2c(s1)-c1ccccc1N(C(=O)c1ccc(NC(=O)c3cccnc3N3CCCC3)cc1)CC2 [Example 61]	84
Cn1ccnc1CNC(=O)c1cc2c(s1)-c1ccccc1N(C(=O)c1ccc(NC(=O)c3cccnc3N3CCCC3)cc1)CC2 [Example 62]	90
O=C(NC1CC1)c1cc2c(s1)-c1ccccc1N(C(=O)c1ccc(NC(=O)c3ccncc3N3CC(F)C3)cc1)CC2 [Example 63]	99
O=C(NC1CC1)c1cc2c(s1)-c1ccccc1N(C(=O)c1ccc(NC(=O)c3cccnc3N3CC(F)(F)C3)c(F)c1)CC2 [Example 64]	99
Cc1cc(C(=O)Nc2ccc(C(=O)N3CCc4cc(C(=O)NC5CC5)sc4-c4ccccc43)cc2)c(N2CCCC2)nn1 [Example 65]	95
Cc1cc(C(=O)Nc2ccc(C(=O)N3CCc4cc(C(=O)NC5CC5)sc4-c4ccccc43)cc2)c(N2CC(F)(F)C2)nn1 [Example 67]	98
